Here are results for twelve molecules from patent publication US20230063230A1, “NURR1 RECEPTOR MODULATORS” (priority 2019, published 2023).

Experiment [1] addresses T1, Nurr1 (Homo sapiens, UniProt P43354). The experiment is described as follows: Binding MST.
Target sequence in this assay (P43354 360-595 limits assumed): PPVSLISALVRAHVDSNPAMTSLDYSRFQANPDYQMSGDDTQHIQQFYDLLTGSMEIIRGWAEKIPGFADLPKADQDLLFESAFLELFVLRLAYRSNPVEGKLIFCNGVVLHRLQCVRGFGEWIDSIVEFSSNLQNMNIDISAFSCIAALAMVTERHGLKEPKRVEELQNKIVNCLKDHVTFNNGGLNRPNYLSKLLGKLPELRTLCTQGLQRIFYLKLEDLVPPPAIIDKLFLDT
The target of experiment [2] is T1, Nurr1. The experiment is described as follows: Binding SPR.
Target sequence in this assay (P43354 360-595 limits assumed): as above
Experiment [3] has as its system Nurr1 in MN9D. The experiment is described as follows: qPCR MN9D Nurr1. The note with it: cpds tested at 10 μM, analogs of compound 87. In kind it is cell-based. Background: In qPCR the cycle at which signal appears reflects the starting amount.
Experiment [4] has as its system Vmat2 in MN9D. The experiment is described as follows: cells. Format: cell-based. The note with it: cpds tested at 10 μM, analogs of compound 87, read-out: qPCR MN9D Vmat2.
For experiment [5], the system named is TH in SHSY5Y. The experiment is described as follows: qPCR SHSY5Y TH. In kind it is cell-based. The note with it: Homo sapiens, SH-SY5Y, cpds tested at 10 μM.
The test system of experiment [6] is Pitx3 in MN9D. Briefly: qPCR MN9D Pitx3. The note with it: cpds tested at 10 μM, analogs of compound 87. Format: cell-based.
Experiment [7] addresses T1, Nurr1. Briefly: Luciferase cellular assay. Format: cell-based. Also on record: expressed in transfected cells; host or cells: SK-N-BE(2)C cells (ATCC CRL-2268). The following applies: cpds tested at 10 μM; analogs of compound 87.
Target sequence in this assay (P43354 328-598): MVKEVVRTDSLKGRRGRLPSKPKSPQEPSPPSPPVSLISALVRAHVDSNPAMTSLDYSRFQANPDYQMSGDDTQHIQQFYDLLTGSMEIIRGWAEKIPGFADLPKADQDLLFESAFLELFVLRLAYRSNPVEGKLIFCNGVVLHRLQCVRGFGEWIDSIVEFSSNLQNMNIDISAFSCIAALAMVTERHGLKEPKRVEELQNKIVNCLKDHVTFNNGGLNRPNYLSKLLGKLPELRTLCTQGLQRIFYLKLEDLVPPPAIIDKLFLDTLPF
Experiment [8] has as its target Nurr1 LBD (Homo sapiens, UniProt P43354). The experiment is described as follows: Differential scanning fluorimetry (DSF). Format: binding. The source says:
Dopamine is broken down inside the neurons that produce it, generating oxygen free-radicals and other potentially damaging molecules (53). Among the reactive metabolites is 5,6-dihydroxyindole (DHI), a compound that undergoes spontaneous oxidation to a reactive quinone, which oligomerizes to form a polymer (neuromelanin) of unknown function. This polymer accounts for the dark appearance of nigrostriatal neurons in the normal adult CNS (54,55). Dopamine is also a central player in stress and addiction (3). It is clear that dopamine levels need to be tightly regulated in the CNS. Nurr1 controls all the genes required for dopamine synthesis, but its regulation is poorly understood as the receptor lacks both the canonical NR ligand binding pocket and the classic NR co-regulator binding surface (33). We postulated that Nurr1 might be regulated by dopamine itself, or one of its metabolites, and investigated this possibility using a combination of biophysical and structural techniques. […] Identifying stable analogs of DHI will enable more detailed studies of this intriguing biology.
Background: Differential scanning fluorimetry follows unfolding on heating by fluorescence.

Experiment [9] addresses Nurr1 ligand binding domain (Homo sapiens, UniProt P43354). The experiment is described as follows: Microscale thermophoresis (MST) binding assay. The note with it: measured by microscale thermophoresis. The procedure:
Microscale thermophoresis (MST) assays. Data were collected using the Nanotemper Monolith NT.115 at a temperature of 25° C. The MST buffer used in each experiment was 25 mM HEPES (Sigma Aldrich), pH 7.4, 150 mM NaCl (Alfa Aesar), and 0.02% Pluronic (Sigma Aldrich). All samples were prepared using Protein LoBind tubes or deepwell plates (Eppendorf). The His-tagged Nurr1 was labeled with RED-tris-NTA dye (NT-647) according to the kit's protocol (Nanotemper). Dilutions of each ligand were carried out starting from DMSO stocks of 10 mM in DMSO. The analyte solutions in DMSO were added to aliquots of MST buffer to yield a DMSO concentration of 4%.
Two types of experiments were performed: endpoint and binding affinity assays. For the endpoint assays, equal amounts of the ligand solution and labeled Nurr1 were mixed to yield the final concentrations: 50 nM Nurr1, 25 nM RED-tris-NTA dye, 2% DMSO, and either 25 μM or 100 μM of the desired ligand in the MST buffer. […]
The Monolith NT.115 settings for all samples were 40% excitation power and 40% MST power. The initial fluorescence was recorded for 3 seconds and the thermophoresis fluorescence response was recorded for 20 seconds. […] Screening Analysis software (Nanotemper) was used to normalize the fluorescent response signals to the sample's initial fluorescence. […]

In experiment [10] the test system is Nurr1 target genes in MN9D cells. Briefly: MN9D target gene transcription assay. In kind it is cell-based. The note with it: gene expression normalized to Hprt. Here is the method: MN9D Assays. MN9Dtet-on cells were treated with 10 μM of each compound or DMSO (vehicle control) for 6 to 24 hrs. Total RNAs were isolated using Quick-RNA miniprep Plus (ZYMO Research, cat#: R^1058), and were subsequently reverse transcribed using High Capacity cDNA Reverse Transcription kit (Applied Biosystems, cat#: 4368814). SYBR Green quantitative real-time PCR analysis was performed using CFX96 Real Time system (BioRad). The following primer pairs were used for qPCR: Nurr1; 5′-[…]-3′ (SEQ ID NO:5) and 5′-[…]-3′ (SEQ ID NO:6), Pitx3; 5′-GCAACTGGCCGCCCAAGG-3′ (SEQ ID NO:7) and 5′-AGGCCCCACGTTGACCGA-3′ (SEQ ID NO:8), VMAT2; 5′-[…]-3′ (SEQ ID NO:9) and 5′-[…]-3′ (SEQ ID NO:10), TH; 5′-[…]-3′ (SEQ ID NO:11) and 5′-[…]-3′ (SEQ ID NO:12), HPRT; 5′-TGGGAGGCCATCACATTGT-3′ (SEQ ID NO:13) and 5′-[…]-3′ (SEQ ID NO:14). The levels of gene expression were normalized to the level of housekeeping gene (HPRT) expression.

Sequence of Nurr1 ligand binding domain (P43354 360-595 limits assumed): as the sequence (P43354 360-595 limits assumed) above
Sequence of Nurr1 LBD (P43354 360-595 limits assumed): as above

Turning to `CC(C)(NC(=O)c1cc(Cl)cc(Cl)c1)c1cnn(CCS)c1` [SP 153, 3,5-dichloro-N-(2-(1-(2-mercaptoethyl)-1H-pyrazol-4-yl)propan-2-yl)benzamide], the “Binding MST” value in experiment [1] (analogs of compound 87) is reported as “+++”. The “Binding SPR” value in experiment [2] (analogs of compound 87) is on record as “+++”. Besides, the fold induction at 10 µM in experiment [3] is above 4; in experiment [4], above 1.5; in [5], above 4.
For `CC(=O)SCCn1cc(C(C)(C)NC(=O)c2ccc(Cl)c(Cl)c2)nn1` [SP 171, S-2-(4-(2-(3,4-dichlorobenzamido)propan-2-yl)-1H-1,2,3-triazol-1-yl)ethyl ethanethioate], the fold induction at 10 µM in experiment [6] is above 4.
Regarding `CC(C)(NC(=O)c1cc(Br)cc(Br)c1)c1cn(CCS)nn1` [SP 156, 3,5-dibromo-N-(2-(1-(2-mercaptoethyl)-1H-1,2,3-triazol-4-yl)propan-2-yl)benzamide], in experiment [1] (analogs of compound 87), the “Binding MST” value is “++”. Further, in [2] (analogs of compound 87), the “Binding SPR” value was “++”. The molecule further returned a fold induction at 10 µM in experiment [5] above 4. In experiment [7], the Luciferase entry is “+++ (+++ =>4−fold)”.
For `NCCc1ccc(O)c(O)c1` [dopamine], the “Stabilization of the Nurr1 LBD, melting temperature” value in experiment [8] is listed as “not”.
On to `CC(=O)SCCn1cc(C(C)(C)NC(=O)c2ccc3ocnc3c2)nn1` [SP 195, S-2-(4-(2-(benzo[d]oxazole-5-carboxamido)propan-2-yl)-1H-1,2,3-triazol-1-yl)ethyl ethanethioate], for which the fold induction at 10 µM in [6] and in experiment [3] was above 1.5 in each case.
For `O=C(COc1ccc(Cl)c(Cl)c1)NCCS` [SP 85, 2-(3,4-dichlorophenoxy)-N-(2-mercaptoethyl)acetamide], the “Binding to the Nurr1 ligand binding domain, affinity” value in experiment [9] is “high nanomolar affinity”. For the same molecule, the “Transcription of Nurr1 target genes in MN9D cells” value in experiment [10] was “stimulate the transcription of Nurr1 target genes”. For the same molecule, the “Binding MST” value in experiment [1] (analogs of compound 85) is given as “+++”. For the same molecule, the “Binding SPR” value in experiment [2] (analogs of compound 85) is reported as “+”.
In the case of `CC(=O)SCCn1cc(C(C)(C)NC(=O)c2cc(Cl)cc(N3CCN(C)CC3)c2)nn1` [SP 186, S-2-(4-(2-(3-chloro-5-(4-methylpiperazin-1-yl)benzamido)propan-2-yl)-1H-1,2,3-triazol-1-yl)ethyl ethanethioate], the fold induction at 10 µM in [4] was above 1.5. In addition, in experiment [7], the Luciferase entry was “++ (++ => 1.5-fold)”.
Turning to `CC(C)(NC(=O)c1cc(Cl)cc(Cl)c1)c1cn(CCS)nn1` [SP 87, 3,5-dichloro-N-(2-(1-(2-mercaptoethyl)-1H-1,2,3-triazol-4-yl)propan-2-yl)benzamide], the “Binding to the Nurr1 ligand binding domain, affinity” value in [9] was “high nanomolar affinity”. The “Transcription of Nurr1 target genes in MN9D cells” value in experiment [10] was “stimulate the transcription of Nurr1 target genes”. In addition, the “Binding MST” value in [1] (analogs of compound 87) is “+++”. Besides, in experiment [2] (analogs of compound 87), the “Binding SPR” value was “+”. The fold induction at 10 µM in [4] is above 4; in [5], above 1.5.
On to `CC(C)(NC(=O)c1ccc(Cl)c(Cl)c1)c1cn(CCS)nn1` [SP 157, 3,4-dichloro-N-(2-(1-(2-mercaptoethyl)-1H-1,2,3-triazol-4-yl)propan-2-yl)benzamide], for which the “Binding MST” value in experiment [1] (analogs of compound 87) is given as “+++”. The “Binding SPR” value in experiment [2] (analogs of compound 87) is listed as “+”. Further, the fold induction at 10 µM in experiment [4] is above 4. Further, the Luciferase entry in [7] is recorded as “+++ (+++ =>4−fold)”.
Consider `COc1cc(OC)cc(C(=O)NC(C)(C)c2cn(CCS)nn2)c1` [SP 191, N-(2-(1-(2-mercaptoethyl)-1H-1,2,3-triazol-4-yl)propan-2-yl)-3,5-dimethoxybenzamide], for which the “Binding MST” value in experiment [1] (analogs of compound 87) is “++”. Besides, the “Binding SPR” value in experiment [2] (analogs of compound 87) is “+”. In addition, the figures for the fold induction at 10 µM in [3] and in experiment [4] were above 4 and above 1.5, respectively.
`CC(=O)SCCn1cc(C(C)(C)NC(=O)c2cc(Br)cc(Br)c2)nn1` [SP 173, S-2-(4-(2-(3,5-dibromobenzamido)propan-2-yl)-1H-1,2,3-triazol-1-yl)ethyl ethanethioate] showed a fold induction at 10 µM in experiment [5] above 1.5. In experiment [7], the Luciferase result is listed as “+++ (+++ =>4−fold)”.
As to `CC(C)C(=O)SCCn1cc(C(C)(C)NC(=O)c2cc(Cl)cc(Cl)c2)nn1` [SP 163, S-2-(4-(2-(3,5-dichlorobenzamido)propan-2-yl)-1H-1,2,3-triazol-1-yl)ethyl 2-methylpropanethioate], the results for the fold induction at 10 µM in experiment [4] and in experiment [5] were above 4 and above 1.5, respectively.
